According to paper PMC10761396, “Evaluation of new alternative methods for the identification of estrogenic, androgenic and steroidogenic effects: a comparative in vitro/in silico study” (Archives of Toxicology, 2023):
pIC50, pKi: −log10 of the molar value.

Columns and labels:
[1] = tested on: ER; parameters: method as in Browne, et al (2015); conditions: ref Browne, et al (2015), cited from earlier work; for ToxCast Pathway Model (AUC): as agonist where given, value above 0.1 = significant interaction
[2] = tested on: human (non-selective) ER; assay: ER radioligand ([3H]estradiol) receptor-binding assay; conditions: for inhibition of control specific binding to the ER: single-dose screening, 10 µM
Protocol: The chemicals were tested for their ability to bind to different targets. […] Chemicals were incubated at 10 µM with cells overexpressing ER or AR for 24 h at 4°C, after which, the binding of the radiolabeled ligand ([^3H]estradiol for ER and [^3H]methyltrienolone for AR) was measured by liquid scintillation counting. An increase or decrease higher than 50% were considered to represent significant effects. Four chemicals were tested in additional incubations at several concentrations up to the maximum soluble concentration for IC50 or EC50 determination for the associated target. Receptor binding was calculated as a % inhibition of the binding of a radioactively labeled ligand specific for each target.
Each test chemical was tested in a single assay in duplicate.

[3] = target: T1, ERα (Homo sapiens, UniProt P03372); assay: YES (Yeast oestrogen screen) assay, agonist and antagonist mode; conditions: YES agonist assay; duplicates in two independent experiments
T1 sequence (P03372 1-595): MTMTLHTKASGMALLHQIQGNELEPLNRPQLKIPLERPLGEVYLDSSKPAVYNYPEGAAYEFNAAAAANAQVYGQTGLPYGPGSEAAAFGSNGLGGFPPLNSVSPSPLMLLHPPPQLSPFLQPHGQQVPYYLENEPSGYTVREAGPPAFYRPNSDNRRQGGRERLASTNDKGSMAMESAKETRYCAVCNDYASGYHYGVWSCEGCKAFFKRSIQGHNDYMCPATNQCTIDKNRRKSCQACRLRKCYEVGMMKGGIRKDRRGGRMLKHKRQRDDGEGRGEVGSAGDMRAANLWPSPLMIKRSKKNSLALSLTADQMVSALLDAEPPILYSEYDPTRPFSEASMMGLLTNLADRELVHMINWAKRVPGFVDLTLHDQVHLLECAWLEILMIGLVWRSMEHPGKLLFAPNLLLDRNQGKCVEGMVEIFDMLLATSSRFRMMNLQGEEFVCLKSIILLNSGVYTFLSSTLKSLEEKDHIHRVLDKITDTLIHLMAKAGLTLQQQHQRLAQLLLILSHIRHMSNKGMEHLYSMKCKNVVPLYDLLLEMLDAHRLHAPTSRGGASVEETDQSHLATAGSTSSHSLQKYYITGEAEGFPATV
Protocol: The YES/YAS XL (Xtra Lyticase) assay kit from Xenometrix AG (Allschwil, Switzerland) was conducted according to the Supplier’s instructions.
In the YES assay, human ERα is integrated in the yeast (Saccharomyces cerevisiae) chromosome, and for the YAS assay human AR is integrated (Routledge and Sumpter 1996; Sohoni and Sumpter 1998). […] This enzyme then converts a yellow substrate to a purple metabolite, which can be measured colorimetrically.
Growing yeast cells stably transformed with either hERα (YES) or hAR (YAS) and a β-galactosidase reporter system were exposed to a range of concentrations of each test compound. […] The positive control chemicals for agonistic effects were 17-β estradiol for YES and 5α-dihydrotestosterone for YAS. […] A combination of a fixed concentration of positive control and a range of concentrations of each test chemical were tested. The cells were incubated with each treatment for 18 h at 31°C. The cells were lysed in the presence of the yellow β-galactosidase-substrate, chlorophenol red-β-D-galactopyranoside (CPRG). Yeast cell growth was assessed prior to addition of the lysis buffer by measuring the absorbance at 690 nm. The production of the red metabolite of CPRG was determined by measuring the absorbance at 570 nm. It was corrected for diffraction by cells and debris by a simultaneous measurement at 690 nm. The results were evaluated for estrogenic and androgenic agonistic and antagonistic activity, as well as for yeast growth inhibition or cytotoxicity.
An IR value ≥ IR10 in the YES or YAS agonist assay indicates an agonistic effect (IR10 is defined as the IR which is 10% of (IR max - IR solvent) above the IR solvent. An IR value ≤ IR50 in the YES or YAS antagonist assay indicates a possible antagonistic effect (IR50 is defined as 50% of (IR control - IR solvent), where the IR control is at the corresponding fixed concentration of agonist used: 3.3 × 10^-10 M 17-β estradiol and 3.3 × 10^-9 M 5α-dihydrotestosterone, respectively). […]

Structure (SMILES): CC(C)(C)CC(C)(C)c1ccc(O)cc1 [4-TO, 4-tert-octylphenol]
- ToxCast Pathway Model (AUC) [1]: 0.393
- ToxCast Pathway Model interaction [1]: significant interaction

Structure (SMILES): O=c1c(-c2ccc(O)cc2)coc2cc(O)ccc12 [Daidzein, daidzein]
- ToxCast Pathway Model (AUC) [1]: 0.44
- ToxCast Pathway Model interaction [1]: significant interaction
- inhibition of control specific binding to the ER [2]: more than 50%
- ER agonism in the YES assay [3]: positive

Structure (SMILES): C[C@]12CCC(=O)C[C@@H]1CC[C@@H]1[C@@H]2CC[C@@]2(C)[C@H]1CC[C@]2(C)O [Mestanolone, mestanolone, reference compound]
- ER binding outcome [2]: confirmed to bind to the ER
- pIC50 ([2]; follow-up dose–response assay): 5.80
- pKi ([2]; follow-up dose–response assay): 6.28
- inhibition of control specific binding to the ER [2]: more than 50%
- ER agonism in the YES assay [3]: positive
